# Reference: US9849130B2 (KamTek, Inc., priority 2014, dated 2017)
# “Also recorded” adds a separate entry of the source. Where two headings read alike, the source gives them in different places.
# Assays:
# CD strains = experiment: In vitro activity of CFM + additional antimicrobial agent against CD (MIC alone/combination, FIC, ΣFIC); type: cell-based, Clostridium difficile; conditions: CD strain NR32888
# Escherichia coli strains = experiment: MIC by microdilution in Mueller-Hinton broth against Escherichia coli strains; type: cell-based; conditions: for MIC: Escherichia coli, Mueller-Hinton broth, read-out: MIC
# Enterococcus faecalis = experiment: MIC by microdilution in Mueller-Hinton broth against Enterococcus faecalis strains; type: cell-based; conditions: Enterococcus faecalis
# Enterococci faecium = experiment: MIC by microdilution in Mueller-Hinton broth against Enterococci faecium strains; type: cell-based, Enterococcus faecium; conditions: Enterococcus faecium, Mueller-Hinton broth, read-out: MIC
# [1] = system: Staphylococcus aureus strains; experiment: MIC by microdilution in Mueller-Hinton broth against Staphylococcus aureus strains; type: cell-based; conditions: Staphylococcus aureus
# Bacteroides Strains = experiment: MIC by microdilution in Brucella broth against Bacteroides strains; type: cell-based, Bacteroides spp.
# Bifidobacterium strains = experiment: MIC by microdilution in BHI broth against Bifidobacterium strains; type: cell-based, Bifidobacterium spp.; conditions: BHI broth, read-out: MIC
# Lactobacillus strains = experiment: MIC against Lactobacillus strains; type: cell-based, Lactobacillus spp.; conditions: broth microdilution, BHI with 0.02% Tween 80, pH 6.0, read-out: MIC
# [2] = system: Lachnospiraceae and related bacterial strains; experiment: MIC against Lachnospiraceae and related bacterial strains; type: cell-based, Lachnospiraceae spp.
structure (smiles),measurement,setting,value
"CC(C)N=c1cc2n(-c3ccc(Cl)cc3)c3ccccc3nc-2cc1Nc1ccc(Cl)cc1 [CFM, 3-(p-chloroanilino)-10-(p-chlorophenyl)-2,10-dihydro-2-iso-propyliminophenazine]",FIC,"CD strains; Test 20, CFM + VAN",0.25
same,MIC combination,"CD strains; Test 20, CFM + VAN",0.062 µg/mL
same,ΣFIC,"CD strains; Test 20, sum for combination CFM + VAN",0.75
same,FIC,"CD strains; Test 21, CFM + MET",0.031
same,MIC combination,"CD strains; Test 21, CFM + MET",0.0078 µg/mL
same,ΣFIC,"CD strains; Test 21, sum for combination CFM + MET",0.28
same,activity against E. coli (in words),Escherichia coli strains,relatively inactive; also recorded: not active
same,MIC,Escherichia coli strains; Escherichia coli strain NR 6,> 32 µg/mL
same,MIC,Escherichia coli strains; Escherichia coli strain NR 8,> 32 µg/mL
same,MIC,Escherichia coli strains; Escherichia coli strain NR 96,> 32 µg/mL
same,MIC,Escherichia coli strains; Escherichia coli strain NR 104,> 32 µg/mL
same,MIC,Escherichia coli strains; Escherichia coli strain NR 17626,> 32 µg/mL
same,MIC,Escherichia coli strains; Escherichia coli strain NR 17627,> 32 µg/mL
same,MIC,Escherichia coli strains; Escherichia coli strain NR 17633,> 32 µg/mL
same,MIC,Escherichia coli strains; Escherichia coli strain NR 17647,> 32 µg/mL
same,MIC,Escherichia coli strains; Escherichia coli strain NR 17650,> 32 µg/mL
same,MIC,Escherichia coli strains; Escherichia coli strain NR 17661,> 32 µg/mL
same,MIC,"Enterococcus faecalis; E. faecalis NR 31884, read-out: MIC",32 µg/mL
same,MIC,"Enterococcus faecalis; E. faecalis NR 31885, read-out: MIC",32 µg/mL
same,MIC,"Enterococcus faecalis; E. faecalis NR 31886, read-out: MIC",32 µg/mL
same,MIC,"Enterococcus faecalis; E. faecalis NR 31887, read-out: MIC",16 µg/mL
same,MIC,"Enterococcus faecalis; E. faecalis NR 31888, read-out: MIC",32 µg/mL
same,MIC,Enterococci faecium; E. faecium NR 31903,4 µg/mL
same,MIC,Enterococci faecium; E. faecium NR 31909,2 µg/mL
same,MIC,Enterococci faecium; E. faecium NR 31912,2 µg/mL
same,MIC,Enterococci faecium; E. faecium NR 31915,16 µg/mL
same,MIC,Enterococci faecium; E. faecium NR 31916,8 µg/mL
same,MIC,"[1]; Staphylococcus aureus strain NR 10129, read-out: MIC",16 µg/mL
same,MIC,"[1]; Staphylococcus aureus strain NR 10186, read-out: MIC",2 µg/mL
same,MIC,"[1]; Staphylococcus aureus strain NR 10187, read-out: MIC",> 32 µg/mL
same,MIC,"[1]; Staphylococcus aureus strain NR 10188, read-out: MIC",8 µg/mL
same,MIC,"[1]; Staphylococcus aureus strain NR 10189, read-out: MIC",8 µg/mL
same,MIC,"[1]; Staphylococcus aureus strain NR 10191, read-out: MIC",4 µg/mL
same,MIC,"[1]; Staphylococcus aureus strain NR 10192, read-out: MIC",8 µg/mL
same,MIC,"[1]; Staphylococcus aureus strain NR 10193, read-out: MIC",4 µg/mL
same,MIC,"[1]; Staphylococcus aureus strain NR 10194, read-out: MIC",4 µg/mL
same,MIC,"[1]; Staphylococcus aureus strain NR 10198, read-out: MIC",16 µg/mL
same,MIC,"Bacteroides Strains; B. caccae HM728, read-out: MIC",1 µg/mL
same,MIC,"Bacteroides Strains; B. eggerthii HM210, read-out: MIC",2 µg/mL
same,MIC,"Bacteroides Strains; B. fragilis HM709, read-out: MIC",4 µg/mL
same,MIC,"Bacteroides Strains; B. fragilis HM710, read-out: MIC",2 µg/mL
same,MIC,"Bacteroides Strains; B. fragilis HM714, read-out: MIC",2 µg/mL
same,MIC,"Bacteroides Strains; B. ovatus HM222, read-out: MIC",0.25 µg/mL
same,MIC,"Bacteroides Strains; B. stercoris HM1036, read-out: MIC",0.5 µg/mL
same,MIC,"Bacteroides Strains; Bacteroides, B. spp. HM18",4 µg/mL
same,MIC,"Bacteroides Strains; Bacteroides, B. spp. HM19",1 µg/mL
same,MIC,"Bacteroides Strains; Bacteroides, B. spp. HM23, read-out: MIC",2 µg/mL
same,MIC,"Bacteroides Strains; Bacteroides, B. spp. HM27",1 µg/mL
same,MIC,"Bacteroides Strains; Bacteroides, B. spp. HM58",1 µg/mL
same,MIC,Bifidobacterium strains; Bifidobacterium adolescentis HM-633,1 µg/mL
same,MIC,Bifidobacterium strains; Bifidobacterium breve HM-411,2 µg/mL
same,MIC,Bifidobacterium strains; Bifidobacterium breve HM-412,2 µg/mL
same,MIC,Bifidobacterium strains; Bifidobacterium breve HM-856,4 µg/mL
same,MIC,Bifidobacterium strains; Bifidobacterium breve HM-1120,> 32 µg/mL
same,MIC,Bifidobacterium strains; Bifidobacterium longum HM-845,1 µg/mL
same,MIC,Bifidobacterium strains; Bifidobacterium longum HM-846,2 µg/mL
same,MIC,Bifidobacterium strains; Bifidobacterium longum HM-847,1 µg/mL
same,MIC,"Bifidobacterium strains; Bifidobacterium, Bifidobacterium sp. HM-30",0.5 µg/mL
same,MIC,"Bifidobacterium strains; Bifidobacterium, Bifidobacterium sp. HM-868",2 µg/mL
same,MIC,"Lactobacillus strains; Lactobacillus, pH 6, Lactobacillus jhonsonii HM-643",> 32 µg/mL
same,MIC,"Lactobacillus strains; Lactobacillus, pH 6, Lactobacillus sp. HM-228",1 µg/mL
same,MIC,"Lactobacillus strains; Lactobacillus, pH 6, Lactobacillus sp. HM-478",> 32 µg/mL
same,MIC,"Lactobacillus strains; pH 6, Lactobacillus crispatus HM-637",4 µg/mL
same,MIC,"Lactobacillus strains; pH 6, Lactobacillus gasseri HM-104",> 32 µg/mL
same,MIC,"Lactobacillus strains; pH 6, Lactobacillus iners HM-126",2 µg/mL
same,MIC,"Lactobacillus strains; pH 6, Lactobacillus jensenii HM-105",> 32 µg/mL
same,MIC,"Lactobacillus strains; pH 6, Lactobacillus reuteri HM-102",> 32 µg/mL
same,MIC,"Lactobacillus strains; pH 6, Lactobacillus rhamnosus HM-106",> 32 µg/mL
same,MIC,"Lactobacillus strains; pH 6, Lactobacillus vaginalis HM-405",2 µg/mL
same,MIC,[2],0.125 µg/mL
same,MIC,"[2]; Clostridiales bacterium, Clostridiales bacterium HM-84, broth microdilution, brucella broth, read-out: MIC",≤ 0.031 µg/mL
same,MIC,"[2]; Clostridiales bacterium, Clostridiales bacterium HM-182, broth microdilution, brucella broth, read-out: MIC",0.25 µg/mL
same,MIC,"[2]; Eubacterium sp. HM-178, broth microdilution, brucella broth",0.125 µg/mL
same,MIC,"[2]; Lachnospiraceae sp. HM-7, broth microdilution, brucella broth, read-out: MIC",≤ 0.031 µg/mL
same,MIC,"[2]; Lachnospiraceae sp. HM-150, broth microdilution, brucella broth, read-out: MIC",0.25 µg/mL
same,MIC,"[2]; Lachnospiraceae sp. HM-153, broth microdilution, brucella broth",0.125 µg/mL
same,MIC,"[2]; Lachnospiraceae sp. HM-154, broth microdilution, brucella broth, read-out: MIC",0.5 µg/mL
same,MIC,"[2]; Lachnospiraceae sp. HM-161, broth microdilution, brucella broth, read-out: MIC",0.25 µg/mL
same,MIC,"[2]; Lachnospiraceae sp. HM-480, broth microdilution, brucella broth, read-out: MIC",0.062 µg/mL
same,MIC,"[2]; Lachnospiraceae sp. HM-558, broth microdilution, brucella broth, read-out: MIC",0.062 µg/mL
same,MIC,"[2]; Lachnospiraceae sp. HM-768, broth microdilution, brucella broth, read-out: MIC",≤ 0.031 µg/mL
same,MIC,"[2]; Lachnospiraceae sp. HM-868, broth microdilution, brucella broth, read-out: MIC",2 µg/mL
same,MIC,"[2]; Peptostreptococcaceae sp. HM-766, broth microdilution, brucella broth, read-out: MIC",1 µg/mL
same,susceptibility of Lachnospiraceae and related organisms (in words),[2]; most of the members of this family,susceptible
same,MIC,"C. difficile VPI10463; Clostridioides difficile, VPI10463",0.125 µg/mL
same,MIC,"C. difficile VPI10463; Clostridioides difficile, VPI10463, Expt. 1, fecal extract (human feces 20% w/v in BHI), C. difficile VPI10463",0.5 µg/mL
same,MIC,"C. difficile VPI10463; Clostridioides difficile, VPI10463, Expt. 2, −fecal extract, C. difficile VPI10463",0.062 µg/mL
same,MIC,"C. difficile VPI10463; Expt. 2, +fecal extract (human feces 20% w/v in BHI), C. difficile VPI10463",0.125 µg/mL
